From patent US20200385371A1 (Propellon Therapeutics Inc., priority 2017, published 2020)

Key:
MV4-11 cells = assay: Cell proliferation assay (ATPlite); format: cell-based; settings: Homo sapiens, 120 h; MV4-11 cells, five days; read-out: GI MV411 EC50
How it was run: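 ATPlite luminescence after five days' culture (37° C, 5% CO2) gives viability. Compounds dosed in 10 concentrations up to 10 μM against DMSO; 1,000 cells/well seeded in Alpha-MEM/10% FBS.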

WDR5 [1] = molecular target: T1, WDR5 (Homo sapiens, UniProt P61964); assay: Surface Plasmon Resonance (SPR) assay; format: binding; set-up: Full length WDR5 with an N-terminal His tag and C-terminal AviTag; His tag (N); made in house; host or cells: E. coli; settings: read-out: SPR Kd
How it was run: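 Full-length biotinylated WDR5 (N-His, C-AviTag, E. coli) captured (~3000 RU) on streptavidin SA chip; Biacore T200. HBS-EP pH 7.4 plus 5% DMSO running buffer, 40 μl/min.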

WDR5 [2] = molecular target: T1, WDR5; assay: Fluorescence Polarization (FP) binding assay
How it was run: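 Buffer was pH 6.5 sodium phosphate (80 mM) with 20 mM KCl and 0.008% Triton X-100; 9-Ala-FAM probe at 20 nM used 0.05 μM WDR5 and 480/540 nm polarization, H3 (1-15) probe at 30 nM used 0.3 μM WDR5 and 485/528 nm. Quadruplicate data were hyperbola-fitted to give Kdisp.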

Row | SMILES | EC50 (MV4-11 cells) | Kd (WDR5 [1]) | IC50 (WDR5 [2])
1 | COc1cc(N2CC=C(c3c(F)cc(N4CCN(C)[C@@H](C)C4)c(NC(=O)c4c[nH]c(=O)cc4C(F)F)c3F)C2)ncn1 [Example 74, (S)-4-(difluoromethyl)-N-(6-(3,4-dimethylpiperazin-1-yl)-2,4-difluoro-3-(1-(6-methoxypyrimidin-4-yl)-2,5-dihydro-1H-pyrrol-3-yl)phenyl)-6-oxo-1,6-dihydropyridine-3-carboxamide] | 36.7 nM | 2.12 nM | 16.4 nM
2 | C[C@@H]1CN(c2nccc(-c3c(F)cc(N4CCN(C)[C@@H](C)C4)c(NC(=O)c4c[nH]c(=O)cc4C(F)F)c3F)n2)C[C@H](C)O1 [Example 59, 4-(Difluoromethyl)-N-(3-(2-((2S,6R)-2,6-dimethylmorpholino)pyrimidin-4-yl)-6-((S)-3,4-dimethylpiperazin-1-yl)-2,4-difluorophenyl)-6-oxo-1,6-dihydropyridine-3-carboxamide] | 56.6 nM | 1.14 nM | 14.4 nM
3 | C[C@H]1CN(c2ncc(-c3c(F)cc(N4CCN(C)[C@@H](C)C4)c(NC(=O)c4c[nH]c(=O)cc4C(F)(F)F)c3F)cn2)C[C@H](C)O1 [Example 87, N-(3-(2-((2S,6S)-2,6-dimethylmorpholino)pyrimidin-5-yl)-6-((S)-3,4-dimethylpiperazin-1-yl)-2,4-difluorophenyl)-6-oxo-4-(trifluoromethyl)-1,6-dihydropyridine-3-carboxamide] | 19.4 nM | 1.47 nM | 9.85 nM
4 | C[C@@H]1CN(c2ccc(-c3c(F)cc(N4C[C@@H](C)N(C)[C@@H](C)C4)c(NC(=O)c4c[nH]c(=O)cc4C(F)(F)F)c3F)cn2)CCO1 [Example 168, N-(2,4-difluoro-3-(6-((R)-2-methylmorpholino)pyridin-3-yl)-6-((3S,5R)-3,4,5-trimethylpiperazin-1-yl)phenyl)-6-oxo-4-(trifluoromethyl)-1,6-dihydropyridine-3-carboxamide] | 36.8 nM | 0.87 nM | 16.6 nM
5 | C[C@H]1CN(c2cc(F)c(-c3ccc(OC4CCOCC4)nc3)c(F)c2NC(=O)c2c[nH]c(=O)cc2C(F)(F)F)CCN1C [Example 186, (S)—N-(6-(3,4-dimethylpiperazin-1-yl)-2,4-difluoro-3-(6-((tetrahydro-2H-pyran-4-yl)oxy)pyridin-3-yl)phenyl)-6-oxo-4-(trifluoromethyl)-1,6-dihydropyridine-3-carboxamide] | 39.9 nM | 0.8 nM | 26.9 nM
6 | C[C@@H]1CN(c2cc(F)c(-c3cnc4c(c3)OCCO4)c(F)c2NC(=O)c2c[nH]c(=O)cc2C(F)(F)F)C[C@H](C)N1C [Example 73, N-(3-(2,3-dihydro-[1,4]dioxino[2,3-b]pyridin-7-yl)-2,4-difluoro-6-((3S,5R)-3,4,5-trimethylpiperazin-1-yl)phenyl)-6-oxo-4-(trifluoromethyl)-1,6-dihydropyridine-3-carboxamide] | 110 nM | 1.26 nM | 16.8 nM
7 | C[C@H]1CN(c2cc(F)c(C3=CCCN(C(=O)OC4(C)CCC4)C3)c(F)c2NC(=O)c2c[nH]c(=O)cc2C(F)F)CCN1C [Example 94, 1-Methylcyclobutyl (S)-5-(3-(4-(difluoromethyl)-6-oxo-1,6-dihydropyridine-3-carboxamido)-4-(3,4-dimethylpiperazin-1-yl)-2,6-difluorophenyl)-3,6-dihydropyridine-1(2H)-carboxylate] | 93.9 nM | 2.17 nM | 17.4 nM
8 | C[C@H]1CN(c2ncc(-c3c(F)cc(N4CCN(C)[C@@H](C)C4)c(NC(=O)c4cn(C)c(=O)cc4C(F)F)c3F)cn2)C[C@H](C)O1 [Example 160, 4-(Difluoromethyl)-N-(3-(2-((2S,6S)-2,6-dimethylmorpholino)pyrimidin-5-yl)-6-((S)-3,4-dimethylpiperazin-1-yl)-2,4-difluorophenyl)-1-methyl-6-oxo-1,6-dihydropyridine-3-carboxamide] | 254 nM | 1.36 nM | 14 nM
9 | CC(C)[C@@H]1CN(c2ncc(-c3c(F)cc(N4CCN(C)[C@@H](C)C4)c(NC(=O)c4c[nH]c(=O)cc4C(F)F)c3F)cn2)CCO1 [Example 117, 4-(Difluoromethyl)-N-(6-((S)-3,4-dimethylpiperazin-1-yl)-2,4-difluoro-3-(2-((R)-2-isopropylmorpholino)pyrimidin-5-yl)phenyl)-6-oxo-1,6-dihydropyridine-3-carboxamide] | 28.2 nM | 0.84 nM | 13.6 nM
10 | C[C@@H]1CN(c2ccc(-c3c(F)cc(N4CCN(C)[C@@H](C)C4)c(NC(=O)c4ccc(F)cc4C(F)F)c3F)cn2)C[C@H](C)O1 [Example 178, 2-(Difluoromethyl)-N-(3-(6-((2S,6R)-2,6-dimethylmorpholino)pyridin-3-yl)-6-((S)-3,4-dimethylpiperazin-1-yl)-2,4-difluorophenyl)-4-fluorobenzamide] | 189 nM | 1.42 nM | 19.7 nM
11 | COc1cnc(N2CC=C(c3c(F)cc(N4CCN(C)[C@@H](C)C4)c(NC(=O)c4c[nH]c(=O)cc4C(F)F)c3F)C2)nc1 [Example 50, (S)-4-(difluoromethyl)-N-(6-(3,4-dimethylpiperazin-1-yl)-2,4-difluoro-3-(1-(5-methoxypyrimidin-2-yl)-2,5-dihydro-1H-pyrrol-3-yl)phenyl)-6-oxo-1,6-dihydropyridine-3-carboxamide] | 83.2 nM | 0.8 nM | 11.8 nM
12 | CNC(=O)c1cc(-c2c(F)cc(N3C[C@@H](C)N(C)[C@@H](C)C3)c(NC(=O)c3c[nH]c(=O)cc3C(F)(F)F)c2F)ccc1F [Example 29, 6-Oxo-N-(2,4′,6-trifluoro-3′-(methylcarbamoyl)-4-((3S,5R)-3,4,5-trimethylpiperazin-1-yl)-[1,1′-biphenyl]-3-yl)-4-(trifluoromethyl)-1,6-dihydropyridine-3-carboxamide] | 1110 nM | 3.9 nM | 22.4 nM
13 | C[C@@H]1CN(c2nc(-c3c(F)cc(N4CCN(C)[C@@H](C)C4)c(NC(=O)c4c[nH]c(=O)cc4C(F)F)c3F)cs2)C[C@H](C)O1 [Example 132, 4-(Difluoromethyl)-N-(3-(2-((2S,6R)-2,6-dimethylmorpholino)thiazol-4-yl)-6-((S)-3,4-dimethylpiperazin-1-yl)-2,4-difluorophenyl)-6-oxo-1,6-dihydropyridine-3-carboxamide] | 132 nM | 2.01 nM | 12.4 nM
14 | C[C@H]1CN(c2cc(F)c(C3=CCN(C(=O)c4csc(CN(C)C)n4)CC3)c(F)c2NC(=O)c2c[nH]c(=O)cc2C(F)F)CCN1C [Example 187, (S)-4-(difluoromethyl)-N-(3-(1-(2-((dimethylamino)methyl)thiazole-4-carbonyl)-1,2,3,6-tetrahydropyridin-4-yl)-6-(3,4-dimethylpiperazin-1-yl)-2,4-difluorophenyl)-6-oxo-1,6-dihydropyridine-3-carboxamide] | 913 nM | 2.95 nM | 14.7 nM
15 | C[C@@H]1CN(c2nc(-c3c(F)cc(N4CCN(C)[C@@H](C)C4)c(NC(=O)c4c[nH]c(=O)cc4C(F)(F)F)c3F)cs2)C[C@H](C)O1 [Example 131, N-(3-(2-((2S,6R)-2,6-dimethylmorpholino)thiazol-4-yl)-6-((S)-3,4-dimethylpiperazin-1-yl)-2,4-difluorophenyl)-6-oxo-4-(trifluoromethyl)-1,6-dihydropyridine-3-carboxamide] | 208 nM | 5.12 nM | 16.6 nM
16 | C[C@@H]1CN(c2cc(F)c(-c3cnc(N4C[C@H]5CC[C@@H](C4)O5)nc3)c(F)c2NC(=O)c2c[nH]c(=O)cc2C(F)(F)F)C[C@H](C)N1C [Example 90, N-(3-(2-((R,5S)-8-oxa-3-azabicyclo[3.2.1]octan-3-yl)pyrimidin-5-yl)-2,4-difluoro-6-((3S,5R)-3,4,5-trimethylpiperazin-1-yl)phenyl)-6-oxo-4-(trifluoromethyl)-1,6-dihydropyridine-3-carboxamide] | 29.9 nM | 0.89 nM | 15 nM
17 | COc1cc(N2CC=C(c3c(F)cc(N4CCN(C)[C@@H](C)C4)c(NC(=O)c4c[nH]c(=O)cc4C(F)F)c3F)CC2)ncn1 [Example 67, (S)-4-(difluoromethyl)-N-(6-(3,4-dimethylpiperazin-1-yl)-2,4-difluoro-3-(1-(6-methoxypyrimidin-4-yl)-1,2,3,6-tetrahydropyridin-4-yl)phenyl)-6-oxo-1,6-dihydropyridine-3-carboxamide] | 101 nM | 0.97 nM | 19.7 nM
18 | COc1cnc(N2CC=C(c3c(F)cc(N4CCN(C)[C@@H](C)C4)c(NC(=O)c4c[nH]c(=O)cc4C(F)F)c3F)CC2)nc1 [Example 48, (S)-4-(difluoromethyl)-N-(6-(3,4-dimethylpiperazin-1-yl)-2,4-difluoro-3-(1-(5-methoxypyrimidin-2-yl)-1,2,3,6-tetrahydropyridin-4-yl)phenyl)-6-oxo-1,6-dihydropyridine-3-carboxamide] | 270 nM | 1.49 nM | 22.5 nM
